The record followed here is patent US11020367B2, “Method for preparing medicine with dicaffeoylquinic acid for treating gout” (Huazhong Agricultural University, priority 2019, dated 2021).

Marks after values point to notes of the source that are not given here.

The target of one assay is XOD (xanthine oxidase) (Homo sapiens, UniProt P47989). In words: Inhibition of XOD enzyme activity (absorbance at 295 nm, xanthine substrate). The conditions noted are these: XOD 0.02 U/mL, xanthine 1 mmol/L, 37° C.; read-out: IC50 in inhibiting XOD. In kind it is biochemical. The protocol: Forty μL of xanthine solution (1 mmol/L) was added with a spray gun to measure absorbance every 20 s for 15 times.
XOD (xanthine oxidase), sequence (P47989 whole entry, species assumed): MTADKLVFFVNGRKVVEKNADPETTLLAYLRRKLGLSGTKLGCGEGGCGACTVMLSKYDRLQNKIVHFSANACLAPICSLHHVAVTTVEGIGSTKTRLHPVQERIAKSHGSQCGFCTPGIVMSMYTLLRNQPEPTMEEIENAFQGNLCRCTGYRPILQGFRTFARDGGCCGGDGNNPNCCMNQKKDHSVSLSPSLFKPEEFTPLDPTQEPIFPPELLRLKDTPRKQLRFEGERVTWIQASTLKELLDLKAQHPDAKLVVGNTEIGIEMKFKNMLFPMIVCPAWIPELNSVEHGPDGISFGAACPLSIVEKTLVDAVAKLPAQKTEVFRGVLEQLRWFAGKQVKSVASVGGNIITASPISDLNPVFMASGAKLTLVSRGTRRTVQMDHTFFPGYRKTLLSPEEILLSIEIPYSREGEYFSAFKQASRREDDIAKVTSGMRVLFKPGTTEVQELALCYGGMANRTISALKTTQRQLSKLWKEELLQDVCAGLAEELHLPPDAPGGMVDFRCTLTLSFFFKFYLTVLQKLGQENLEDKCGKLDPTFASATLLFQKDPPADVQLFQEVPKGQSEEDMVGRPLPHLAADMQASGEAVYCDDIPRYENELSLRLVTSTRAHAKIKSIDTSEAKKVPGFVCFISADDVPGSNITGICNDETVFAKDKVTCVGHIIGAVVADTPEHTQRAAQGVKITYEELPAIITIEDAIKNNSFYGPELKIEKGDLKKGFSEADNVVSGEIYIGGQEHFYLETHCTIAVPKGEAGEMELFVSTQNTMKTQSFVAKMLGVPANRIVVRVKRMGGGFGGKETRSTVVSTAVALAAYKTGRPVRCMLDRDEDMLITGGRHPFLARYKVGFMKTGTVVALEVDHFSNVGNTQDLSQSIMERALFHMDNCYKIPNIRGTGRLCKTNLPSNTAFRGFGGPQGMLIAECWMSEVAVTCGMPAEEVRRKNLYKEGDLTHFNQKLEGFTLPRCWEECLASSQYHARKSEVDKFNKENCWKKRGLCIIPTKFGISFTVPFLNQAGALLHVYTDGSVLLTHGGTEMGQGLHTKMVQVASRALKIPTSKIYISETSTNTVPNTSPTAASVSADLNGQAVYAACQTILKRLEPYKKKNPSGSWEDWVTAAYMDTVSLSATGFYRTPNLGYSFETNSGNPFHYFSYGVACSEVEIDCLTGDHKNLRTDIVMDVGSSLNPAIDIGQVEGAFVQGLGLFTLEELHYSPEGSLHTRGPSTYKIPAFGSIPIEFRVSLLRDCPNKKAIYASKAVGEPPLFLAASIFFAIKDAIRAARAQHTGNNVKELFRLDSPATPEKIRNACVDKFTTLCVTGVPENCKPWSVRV

A further assay concerns THP-1 cells. The experiment in a line: IL-1β secretion in THP-1 cells stimulated by lipopolysaccharide and sodium urate (gout inflammation model, ELISA). It is filed as cell-based. The conditions noted are these: 100 μmol/L compound pre-incubated 12 h, then lipopolysaccharide 1 μg/mL 2 h and sodium urate 200 μg/mL 4 h; PMA-differentiated THP-1; model group 8747.09 ± 975.97, control group 214.83 ± 11.92. The protocol: THP-1 suspension cells were inoculated into a 24-well plate. When the density reached 80%, a phorbol ester (PMA) solution with a final concentration of 100 ng/mL was added. After 12 hours of PMA treatment, THP-1 cells differentiated into adherent macrophages. Culture medium was aspirated before washing the cells with PBS, completely replacing the culture medium to culture for 12 h before carrying out a dosing treatment. One hundred μmol/L of the above identified monomer compounds were pre-incubated for 12 h, then lipopolysaccharide with a final concentration of 1 μg/mL was added and acted for 2 h, and finally a sodium urate solution with a final concentration of 200 μg/mL was added and acted for 4 h. […] The model group was pre-incubated without drugs, and cells were stimulated with lipopolysaccharide and sodium urate. Finally, the cell supernatant was collected, centrifuged, and IL-1β content in the supernatant was measured by using an ELISA kit.
Background: An ELISA detects its analyte on a solid surface through an enzyme-linked reagent.

`O=C(C=Cc1ccc(O)c(O)c1)OC1C(O)CC(OC(=O)C=Cc2ccc(O)c(O)c2)(C(=O)O)CC1O` (stereo not shown) [1,4-diCQA, 1,4-dicaffeoylquinic acid]: at XOD (xanthine oxidase), the IC50 – broadly, the concentration needed to halve the response being measured – came to 7.36 ± 0.63 µM. Besides, the “IL-1β in cell supernatant” value in the assay with THP-1 cells is 4647.67 ± 607.03^bc pg/mL.

As to `O=C(C=Cc1ccc(O)c(O)c1)OC1CC(O)(C(=O)O)CC(O)C1OC(=O)C=Cc1ccc(O)c(O)c1` (stereo not shown) [3,4-diCQA, 3,4-dicaffeoylquinic acid], on XOD (xanthine oxidase), the IC50 was found to be 260 ± 18.4 µM. The “IL-1β in cell supernatant” value with THP-1 cells was 7088.57 ± 621.91^d pg/mL.

In the case of `O=C(C=Cc1ccc(O)c(O)c1)OC1CC(O)(C(=O)O)CC(OC(=O)C=Cc2ccc(O)c(O)c2)C1O` (stereo not shown) [3,5-diCQA, 3,5-dicaffeoylquinic acid], the IC50 at XOD (xanthine oxidase) stood at 289 ± 21.8 µM. In addition, the “IL-1β in cell supernatant” value in the assay with THP-1 cells is recorded as 8850.00 ± 190.20^e pg/mL.

Consider `O=C(C=Cc1ccc(O)c(O)c1)OC1CC(O)(C(=O)O)CC(O)C1OC(=O)C=Cc1ccc(O)c(O)c1` (stereo not shown) [4,5-diCQA, 4,5-dicaffeoylquinic acid], for which the IC50 on XOD (xanthine oxidase) was 233 ± 10.9 µM. Also, in the assay with THP-1 cells, the “IL-1β in cell supernatant” value is on record as 5572.09 ± 632.81^c pg/mL.

Consider `O=C(C=Cc1ccc(O)c(O)c1)OC1CC(OC(=O)C=Cc2ccc(O)c(O)c2)(C(=O)O)CC(O)C1O` (stereo not shown) [1,5-diCQA, 1,5-dicaffeoylquinic acid], for which the IC50 on XOD (xanthine oxidase) turned out to be 122 ± 2.56 µM. Moreover, in the assay with THP-1 cells, the “IL-1β in cell supernatant” value is reported as 4176.74 ± 1214.41^b pg/mL.
